Test results: US4945055A, “Human chorionic gonadotropin releasing factor” (Board of Regents, University of Texas System, priority 1986, dated 1990)

Legend:
[1] = system: human chorionic gonadotropin releasing factor (hCG-RF), glycoprotein purified from human term placenta, peptidase activity degrading GnRH; assay: Loss of GnRH immunoreactivity on incubation with hCG-RF (GnRH-RIA after Sephadex G-150); format: biochemical; conditions: hCG-RF 41 ug, GnRH 40 ng, 24 h at 4° C.
Protocol: The effect of purified hCG-RF on GnRH immunoreactivity was studied. […] Chromatography of 0.1 ml of the incubate on Sephadex G-150 (1×20 cm in 0.01M TRIS, 0.001M DTT) followed, collecting 1 ml fraction. Immunoreactive GnRH was determined by GnRH-RIA.

[2] = target: placental receptor recognizing synthetic GnRH; conditions: read-out: dissociation constant of the placental receptor for synthetic GnRH; cited from earlier work

## N=C(N)c1ccc(N)cc1 [para-amino-benzamidine]
[1]; 175 mM para-amino-benzamidine added with the buffer
  reversal of the loss of GnRH immunoreactivity effected by incubation with hCG-RF: totally reversed

## CC(C)C[C@H](NC(=O)CNC(=O)[C@H](Cc1ccc(O)cc1)NC(=O)[C@H](CO)NC(=O)[C@H](Cc1c[nH]c2ccccc12)NC(=O)[C@H](Cc1c[nH]cn1)NC(=O)[C@@H]1CCC(=O)N1)C(=O)N[C@@H](CCCNC(=N)N)C(=O)N1CCC[C@H]1C(=O)NCC(N)=O [synthetic GnRH, pyro-glu-his-trp-ser-tyr-gly-leu-arg-pro-gly-NH2]
[2]
  Kd: 100 nM

## bacitracin
[1]; 5000 unit bacitracin added with the buffer
  reversal of the loss of GnRH immunoreactivity effected by incubation with hCG-RF: totally reversed
